# Source: patent publication US20230149507A1, “TREATMENT OF ALT CANCERS” (INSTITUTO DE MEDICINA MOLECULAR JOÃO LOBO ANTUNES, priority 2019, published 2023)
# Assays:
# Format in all cases: cell-based, human
# HeLa cells [1] = experiment: FACS cell cycle analysis of FANCM-depleted HeLa cells with added agents; conditions: FANCM-depleted HeLa cells; hydroxyurea followed by block release
# Experimental: When indicated, cells were incubated with 1 μM camptothecin (Sigma-Aldrich) for 3 hours, 0.2 mM hydroxyurea (Sigma-Aldrich) for 16 h, 20 μM BIBR 1532 (Merck Millipore) for 7 days, and 10 μM RO-3306 (Selleckchem) for 18 h. […] For fluorescence-activated cell sorting, cells were trypsinized and pelleted by centrifugation at 500 g at 4° C. for 5 min. Cell pellets were either left untreated for viability assays or fixed in 70% ethanol at −20° C. for 30 min and treated with 25 μg/ml RNaseA (Sigma-Aldrich) in 1×PBS at 37° C. for 20 min. Cells were then washed in 1×PBS and stained with 20 μg/ml propidium iodide (Sigma-Aldrich) in 1×PBS at 4° C. for 10 min. Flow cytometry was performed on a BD FACSCalibur or a BD Accuri C6 (BD Biosciences). Data were analyzed using FlowJo software.
# HeLa cells [2] = experiment: Western blot of pS33 (RPA32 phosphorylated at serine 33); conditions: FANCM-depleted HeLa cells
# Experimental: HeLa cervical cancer, HT1080 fibrosarcoma, and HEK293 embryonic kidney cells were purchased from ATCC. […] HeLa, HT1080, HEK293, U2OS, and WI-38 VA13 cells were cultured in high glucose DMEM, GlutaMAX (Thermo Fisher Scientific) supplemented with 10% tetracycline-free fetal bovine serum (Pan BioTech) and 100 U/ml penicillin-streptomycin (Thermo Fisher Scientific). HuO9, Saos2, HOS and SKNAS cells were cultured in high glucose DMEM/F12, GlutaMAX (Thermo Fisher Scientific), supplemented with 10% tetracycline-free fetal bovine serum (Pan BioTech), 100 U/ml penicillin-streptomycin (Thermo Fisher Scientific) and non-essential amino acids (Thermo Fisher Scientific). Mycoplasma contaminations were tested using the VenorGeM Mycoplasma PCR Detection Kit (Minerva Biolabs) according to the manufacturer's instructions. When indicated, cells were incubated with 1 μM camptothecin (Sigma-Aldrich) for 3 hours, 0.2 mM hydroxyurea (Sigma-Aldrich) for 16 h, 20 μM BIBR 1532 (Merck Millipore) for 7 days, and 10 μM RO-3306 (Selleckchem) for 18 h. Cells were trypsinized and pelleted by centrifugation at 500 g at 4° C. for 5 min. […] Supernatant were recovered and protein concentrations were determined by Lowry assay using bovine serum albumin (BSA; Sigma-Aldrich) as standard. […]
# [3] = system: U-2 OS, GM847, Saos-2 (ALT), HeLa and HCT116 (telomerase-positive) cells; experiment: Clonogenic assay of cells treated with PIP-199
# Experimental: (a) Quantitation of the surviving fraction of colonies from U-2 OS, GM847, Saos-2 (ALT), HeLa and HCT116 (telomerase-positive) cells treated with PIP-199 after 11 days. Colony counts were normalized to DMSO controls. Error bars represent mean±SEM from n=3 experiments, *p<0.05, n.s.=non-significant, Student's t-test.
# Clonogenic assays were performed as described in Franken et al., 2006, with cells plated at 1,000 cells/10 cm dish with or without 200 nM 4-hydroxytamoxifen (Sigma Aldrich), which was replenished on days 4 and 7. For cells treated with PIP-199 (Aobious #AOB33732, CAS No: 622795-76-0), cells were plated at 300 cells/well in 6-well plates, and treated with 0-10 μM of drug in dimethyl sulfoxide (DMSO). Cells were left to grow for 11 days. Plates were washed with 1×PBS, then fixed and stained with 0.5% (w/v) crystal violet in 1 part acetic acid, 7 parts methanol for 2 h at room temperature. Plates were then washed with tap water and left to air dry. Colonies on each plate were counted and the plating efficiency and surviving fraction calculated.
# [4] = system: U-2 OS, GM847 and Saos-2 ALT cell lines; experiment: C-circle assay of cells treated with PIP-199; conditions: 0.5 μM PIP-199 for 72 h vs DMSO
# From the text: (a) Schematic of MM2-tamoxifen (40HT)-inducible ER fusion protein-mediated inhibition of the FANCM-BTR complex interaction. […] (c) Tukey boxplots of TIFs in U-2 OS cells expressing MM2-ER or FF>AA-ER fusion proteins in the presence or absence of 40HT. Out of 3 experiments, n=150 cells scored per treatment, **p<0.005, Mann-Whitney test. (d) Representative dot blots and quantitation of C-circle assays in U-2 OS cells expressing MM2-ER or FF>AA-ER fusion proteins in the presence or absence of 40HT. C-circles were normalized to non-induced control. Error bars represent mean±SEM from n 3 experiments, *p<0.05, one-sample t-test. (e) Representative colony formation assay of GM847 and HCT116 cells expressing the MM2-ER fusion protein in the presence or absence of 40HT (top panel). Quantitation of the surviving fraction of colonies for ALT (U-2 OS, GM847 and Saos-2) and telomerase-positive (HeLa and HCT116) cell lines expressing MM2-ER or FF>AA-ER fusion proteins (bottom panel). Colony counts were normalized to non-induced controls. […] (f) Representative dot blots and quantitation of C-circle assays from U-2 OS, GM847, Saos-2, HeLa and HCT116 cells treated with 0.5 μM PIP-199 or vehicle control (DMSO) for 72 h. […] (g) Quantitation of the surviving fraction of colonies from U-2 OS, GM847, Saos-2, HeLa and HCT116 cells treated with PIP-199. […]
# U2OS cells [5] = experiment: PML, RAD51, POLD3 localization at telomeres (IF/FISH), RO-3306 control; conditions: RO-3306 treatment
# Experimental: (§1) (A) Quantifications experiments for PML or RAD51 immunostaining combined with telomeric DNA FISH. POLD3 immunostaining combined with RAP1 immunostaining (green); and EdU detection combined with and telomeric DNA FISH. Experiments were performed on U2OS cells transfected with the indicated siRNAs and harvested 48 hours after transfection. Each dot represents an individual nucleus. A total of at least 300 nuclei from three independent experiments were analyzed for each sample. Bars and error bars are means and SDs. P values were calculated with a Mann-Whitney U test. ***P<0.001, ****P<0.0001.
# Cells grown on coverslips were incubated in CSK buffer for 7 min on ice. All subsequent treatments were performed at room temperature. Cells were fixed with 4% formaldehyde (Sigma-Aldrich) in 1×PBS for 10 min, permeabilized with CSK buffer for 5 min, and incubated in blocking solution (0.5% BSA, 0.1% Tween-20 in 1×PBS) for 1 h. Coverslips were incubated in blocking solution containing primary antibodies for 1 h, washed three times with 0.1% Tween-20 in 1×PBS for 10 min each, and incubated with secondary antibodies diluted in blocking solution for 50 min. DNA was counterstained with 100 ng/ml DAPI in 1×PBS. For combined IF and DNA FISH, cells were again fixed with 4% formaldehyde in 1×PBS for 10 min, washed three times with 1×PBS, incubated in 10 mM Tris-HCl pH 7.2 for 5 min and then denatured and hybridized with TelC-Cy3 probes as described above. DNA was counterstained with 100 ng/ml DAPI in 0.1 M Tris-HCl pH 7.2, 0.15 M NaCl, 0.08% Tween-20 and coverslips were mounted on slides in Vectashield. […]
# U2OS interphase cells = experiment: Telomeric DNA FISH, number and area of telomeric foci, RO-3306 control; conditions: siCt-transfected cells
# Experimental: FIG. 17. FANCM depletion alters telomeric DNA in interphase U2OS cells. (A) Western blot analysis of FANCM protein levels in U2OS cells transfected and treated with RO-3306 as indicated. Cells were harvested 48 hours after transfection. POLD3, RAD51 and PML levels were also analyzed. Beta Actin and LMB1 serve as loading controls. (B) Quantifications of FACS profiles of cells as in A stained with PI. […] R: RO-3306. (C)) Quantifications of numbers of telomeric foci per nucleus in experiments as in A. Each dot represents an individual nucleus. A total of at least 300 nuclei from three independent experiments were analyzed for each sample. Bars and error bars are means and SDs. P values were calculated with a Mann-Whitney U test. (D) Area distribution of telomeric foci areas in experiments as in C. 3D images were sum projected and areas of individual nuclear FISH signals were measured using DAPI staining to identify nuclei (not shown). A total of at least 300 nuclei from three independent experiments were analyzed for each sample. Areas of telomeric foci (in pixels) are binned into 25 intervals of 5-pixel width (x axis; numbers indicate bin centers) and plotted against frequencies (y axis; %). […] (E) Quantification of cells with at least 5 Large (L) foci in experiments as in C. P values were calculated with a two-tailed Student's t-test. *P<0.05, **P<0.005, ***P<0.001, ****P<0.0001. […]
# U2OS cells [6] = experiment: Telomere FISH combined with EdU detection, RO-3306 control; conditions: RO-3306 treatment; to lower extents than FANCM depletion
# Experimental: as §1
# 24 h after siRNA transfection cells were incubated in 10 μM RO-3306 (Selleckchem). 21.5 h later 10 μM EdU (Thermo Fisher Scientific) was added to the culture medium, followed by a 2.5 h incubation. Cells were first stained as for DNA FISH using the TelC-Cy3 probe and then washed twice with 1×PBS followed by EdU detection using the Click-iT EdU Alexa Fluor 488 Imaging Kit (Thermo Fisher Scientific) according to the manufacturer's instructions. DNA was counterstained with 100 ng/ml DAPI in 1×PBS and coverslips were mounted on slides in Vectashield. Image acquisition and analysis were as for DNA FISH.
smiles,measurement,setting,value
"NC(=O)NO [HU, hydroxyurea]",cell cycle distribution,HeLa cells [1],did not show an altered cell cycle distribution
same,pS33 accumulation,HeLa cells [2],did not promote pS33 accumulation
"CCOC(=O)N1CCN(C(c2ccccn2)c2c(-c3ccccc3)n(O)c3ccccc23)CC1 (centres unmarked) [PIP-199, 4-[(1-Hydroxy-2-phenyl-1H-indol-3-yl)-pyridin-2-yl-methyl]-piperazine-1-carboxylic acid ethyl ester]",sensitivity in clonogenic assay (surviving fraction of colonies),"[3]; 0-10 μM PIP-199, 11 days, ALT vs telomerase-positive cells",hypersensitivity of ALT cells
same,surviving fraction of colonies,"[3]; normalized to DMSO controls, datapoint exceeding the visible axis of FIG. 11g, cell line not stated",1.42
same,C-circles,[4],increase in C-circles
O=C1NC(=NCc2cccs2)S/C1=C\c1ccc2ncccc2c1 [RO-3306],number of telomeric PML foci,U2OS cells [5],did not substantially affect
same,number of telomeric RAD51 foci,U2OS cells [5],did not substantially affect
same,number of telomeric POLD3 foci,U2OS cells [5]; less importantly than FANCM depletion,increased
same,number of telomeric foci,U2OS interphase cells; 10 μM RO-3306,less telomeric foci than control cells
same,cells with at least 5 large foci,U2OS interphase cells; RO-3306-treated,~15%
same,incidence of telomeric EdU foci,U2OS cells [6],increased the incidence of telomeric EdU foci
